What was measured:
Assay type in all cases: cell-based
Micrococcus luteus FDA16 = assay: Minimum growth inhibitory concentration on agar culture medium by serial dilution method (Japanese Society of Chemotherapy)
Description: (§1) Minimum growth inhibitory concentrations (mcg/ml) of caprazene-1′″-amide derivatives of the formula (II) against some of microorganisms were measured on an agar culture medium by a serial dilution method according to the standard method as provided by Japanese Society of Chemotherapy. For the cultivation of Mycobacterium smegmatis (one of […]), however, there was used an agar culture medium with the addition of 1% glycerine (the same applies to in the following tests).
(§2) Minimum growth inhibitory concentrations (mcg/ml) of some of the caprazene-1′″-ester derivative of the formula (III) against some of microorganisms were measured on an agar culture medium by a serial dilution method according to the standard method as provided by Japanese Society of Chemotherapy.
(§3) Minimum growth inhibitory concentrations (mcg/ml) of some of the caprazol-1′″-amide derivative of the formula (V) against a variety of microorganisms were measured on an agar medium by a serial dilution method according to the standard method as provided by Japanese Society of Chemotherapy.
(§4) Minimum growth inhibitory concentrations (mcg/ml) of some of the caprazol-1′″-amide-3′″-ester derivative of the formula (VI) against a variety of microorganisms were measured on an agar medium by a serial dilution method according to the standard method as provided by Japanese Society of Chemotherapy.
(§5) Minimum growth inhibitory concentrations (mcg/ml) of some of the caprazol-3′″-ester derivative or caprazol-1′″-ester-3′″-ester derivative of the formula (VII) against a variety of microorganisms were measured on an agar medium by a serial dilution method according to the standard method as provided by Japanese Society of Chemotherapy.
(§6) Minimum growth inhibitory concentrations (mcg/ml) of some of the derivative of the formula (VIII) against a variety of microorganisms were measured on an agar medium by a serial dilution method according to the standard method as provided by Japanese Society of Chemotherapy.

[1] = tested on: Staphylococcus aureus FDA209P; assay: as above
Description: as §1, §2, §3, §4, §5, §6

[2] = tested on: Mycobacterium smegmatis ATCC607; assay: Minimum growth inhibitory concentration on agar culture medium with 1% glycerine by serial dilution method; details: agar culture medium with the addition of 1% glycerine
Description: as §1, §2, §3, §4, §5

| Compound | Minimum growth inhibitory concentration (mcg/ml) against bacteria Micrococcus luteus FDA16 (Micrococcus luteus FDA16) | Minimum growth inhibitory concentration (mcg/ml) against bacteria Staphylococcus aureus FDA209P [1] | Minimum growth inhibitory concentration (mcg/ml) against bacteria Mycobacterium smegmatis ATCC607 [2] |
| --- | --- | --- | --- |
| CCCCCCCCCCCNC(=O)C1C(O)CN(C)C(C(OC2OC(CN)C(O)C2O)C2OC(n3ccc(=O)[nH]c3=O)C(O)C2O)C(=O)N1C (stereo not drawn) [Compound V-F] | 25 µg/mL | 12.5 µg/mL | 6.25 µg/mL |
| CCCCCCCCCCCCNC(=O)C1C(O)CN(C)C(C(OC2OC(CN)C(O)C2O)C2OC(n3ccc(=O)[nH]c3=O)C(O)C2O)C(=O)N1C (stereo not drawn) [Compound V-G, caprazol-1′″-dodecyl-amide derivative] | 25 µg/mL | 12.5 µg/mL | 6.25 µg/mL |
| CCCCCCCCC=CCCCCCCCCNC(=O)C1C(O)CN(C)C(C(OC2OC(CN)C(O)C2O)C2OC(n3ccc(=O)[nH]c3=O)C(O)C2O)C(=O)N1C (stereo not drawn) [Compound V-R] | 25 µg/mL | 12.5 µg/mL | 6.25 µg/mL |
| CCCCCCCCNC(=O)C1C(OC(=O)CCCCCCCC)CN(C)C(C(OC2OC(CN)C(O)C2O)C2OC(n3ccc(=O)[nH]c3=O)C(O)C2O)C(=O)N1C (stereo not drawn) [Compound VI-C] | 6.25 µg/mL | 12.5 µg/mL | 6.25 µg/mL |
| CCCCCCCCCCNC(=O)C1C(OC(=O)CCCCCCCCCC)CN(C)C(C(OC2OC(CN)C(O)C2O)C2OC(n3ccc(=O)[nH]c3=O)C(O)C2O)C(=O)N1C (stereo not drawn) [Compound VI-E] | 6.25 µg/mL | 12.5 µg/mL | 6.25 µg/mL |
| CCCCCCCCCCCNC(=O)C1C(OC(=O)CCCCCCCCCCC)CN(C)C(C(OC2OC(CN)C(O)C2O)C2OC(n3ccc(=O)[nH]c3=O)C(O)C2O)C(=O)N1C (stereo not drawn) [Compound VI-F] | 3.13 µg/mL | 12.5 µg/mL | 6.25 µg/mL |
| CCCCCCCCCCCCNC(=O)C1C(OC(=O)CCCCCCCCCCC)CN(C)C(C(OC2OC(CN)C(O)C2O)C2OC(n3ccc(=O)[nH]c3=O)C(O)C2O)C(=O)N1C (stereo not drawn) [Compound VI-G, caprazol-1′″-dodecylamide-3′″-dodecanoylester derivative] | 3.13 µg/mL | 25 µg/mL | 6.25 µg/mL |
| CCCCCCCCCCCC(=O)OC1CN(C)C(C(OC2OC(CN)C(O)C2O)C2OC(n3ccc(=O)[nH]c3=O)C(O)C2O)C(=O)N(C)C1C(=O)NC1CCCCCCCCCCC1 (stereo not drawn) [Compound VI-Q] | 3.13 µg/mL | 12.5 µg/mL | 6.25 µg/mL |
| CCCCCCCCC=CCCCCCCCCNC(=O)C1C(OC(=O)CCCCCCCCCCC)CN(C)C(C(OC2OC(CN)C(O)C2O)C2OC(n3ccc(=O)[nH]c3=O)C(O)C2O)C(=O)N1C (stereo not drawn) [Compound VI-R] | 3.13 µg/mL | 25 µg/mL | 6.25 µg/mL |
| CCCCCCC(=O)OC1CN(C)C(C(OC2OC(CN)C(O)C2O)C2OC(n3ccc(=O)[nH]c3=O)C(O)C2O)C(=O)N(C)C1C(=O)O (stereo not drawn) [Compound VII-A] | >50 µg/mL | 25 µg/mL | 1.56 µg/mL |
| CCCCCCCC(=O)OC1CN(C)C(C(OC2OC(CN)C(O)C2O)C2OC(n3ccc(=O)[nH]c3=O)C(O)C2O)C(=O)N(C)C1C(=O)O (stereo not drawn) [Compound VII-B] | >50 µg/mL | 12.5 µg/mL | 1.56 µg/mL |
| CCCCCCCCC(=O)OC1CN(C)C(C(OC2OC(CN)C(O)C2O)C2OC(n3ccc(=O)[nH]c3=O)C(O)C2O)C(=O)N(C)C1C(=O)O (stereo not drawn) [Compound VII-C] | >50 µg/mL | 12.5 µg/mL | 0.78 µg/mL |
| CCCCCCCCCC(=O)OC1CN(C)C(C(OC2OC(CN)C(O)C2O)C2OC(n3ccc(=O)[nH]c3=O)C(O)C2O)C(=O)N(C)C1C(=O)O (stereo not drawn) [Compound VII-D] | 3.13 µg/mL | 3.13 µg/mL | 0.78 µg/mL |
| CCCCCCCCCCC(=O)OC1CN(C)C(C(OC2OC(CN)C(O)C2O)C2OC(n3ccc(=O)[nH]c3=O)C(O)C2O)C(=O)N(C)C1C(=O)O (stereo not drawn) [Compound VII-E] | 1.56 µg/mL | 1.56 µg/mL | 0.39 µg/mL |
| CCCCCCCCCCCC(=O)OC1CN(C)C(C(OC2OC(CN)C(O)C2O)C2OC(n3ccc(=O)[nH]c3=O)C(O)C2O)C(=O)N(C)C1C(=O)O (stereo not drawn) [Compound VII-F, caprazol-3′″-dodecanoyl Ester Derivative] | 3.13 µg/mL | 0.78 µg/mL | 0.78 µg/mL |
| CCCCCCCCCCCC(=O)OC1CN(C)C(C(OC2OC(CN)C(O)C2O)C2OC(n3ccc(=O)[nH]c3=O)C(O)C2O)C(=O)N(C)C1C(=O)OC (stereo not drawn) [Compound VII-G, caprazol-1′″-methyl-ester-3′″-dodecanoyl-ester Derivative] | >100 µg/mL | >100 µg/mL | 50 µg/mL |
